The conditions of data set [1]: in vivo, humans; ref Turpeinen et al., 2005; cited from earlier work.
The test system of data set [2] is human liver microsomes. In kind it is in vitro ADME. The conditions noted are these: HLM, p < 0.05; for S,S-OH-bupropion formation higher than control: 1 μM S-bupropion.
The subject of data set [3] is human liver microsomes. In kind it is in vitro ADME. The conditions noted are these: HLM.
For the next data set, the system named is CYP2C19. The conditions noted are these: vs extensive metabolizers; ref Zhu et al., 2014; cited from earlier work.

This is an account of results in paper PMC5034696 (Drug Metabolism and Disposition, 2016).

Regarding `COC(=O)[C@H](c1ccccc1Cl)N1CCc2sccc2C1` [clopidogrel], the “increase in bupropion AUC” value in data set [1] is given as 36%.

With `CCC1(c2ccccc2)NC(=O)N(Cc2ccccc2)C1=O` (single isomer, unassigned; (+)) [N-benzylnirvanol, (+)-N-3-benzylnirvanol], the “R,R-OH-bupropion formation higher than control” value in the data set on human liver microsomes [2] (1 μM R-bupropion) is 11%. Also, the “S,S-OH-bupropion formation higher than control” value in the data set on human liver microsomes [2] came out at 20%. For the same molecule, the “inhibition of 4′-OH-bupropion formation from R-bupropion” value with human liver microsomes [3] (1 µM R-bupropion) came to 84%. Besides, in the data set with human liver microsomes [3] (1 µM S-bupropion), the “inhibition of 4′-OH-bupropion formation from S-bupropion” value stood at 82%.

In the case of `CC(NC(C)(C)C)C(=O)c1cccc(Cl)c1` (stereo not shown) [bupropion], the “increase in bupropion AUC in CYP2C19 intermediate metabolizers” value with CYP2C19 is given as 13%. Moreover, the “estimated in vivo isomerization CL” value is 2.7 L/h in “Chiral inversion” (scaled to blood volume (5 l)) and 22.7 L/h in “Chiral inversion” (scaled to total body water (42 l)).

For the molecule `CC(C)(O)c1ccccc1CC[C@@H](SCC1(CC(=O)O)CC1)c1cccc(/C=C/c2ccc3ccc(Cl)cc3n2)c1` [montelukast], in the data set with human liver microsomes [2], the “S,S-OH-bupropion formation higher than control” value is listed as 15%.

For the molecule `Clc1ccccc1CN1CCc2sccc2C1` [ticlopidine], the “increase in bupropion AUC” value in data set [1] is on record as 61%.
